Patent US10449162B2, “Delivery of drug nanoparticles and methods of use thereof” (DFB Soria, LLC, priority 2015, dated 2019)
Like-named read-outs stand apart in the source and are kept apart here.

Assays:
[1] = Solubility of paclitaxel in various solvents (HPLC); type: physicochemical
Description: For each solvent, about 2 g of the solvent was weighed into a clear glass vial.
Each vial was mixed with a stir bar on a magnetic stirrer for 2 hours at room temperature.
Each vial was then checked every 1-2 hours to see if the solution became clear.

skin inflammation models = details: topical treatment; nonclinical evaluations; cited from earlier work
[2] = methanol/water 15/85 (v/v), 37° C., pH 7, USP Apparatus II 75 rpm, PCT/US16/35993, cited from earlier work
[3] = Observation of paclitaxel nanoparticle crystals in various substances and solutions (light microscopy); type: physicochemical
[4] = Particle size of paclitaxel nanoparticles lots (ACCUSIZER 780); type: physicochemical; details: number-weighted differential distribution; nanoparticle API lot
Description: Max. Concentration: 9000 particles/mL, No. containers: 1, Sensor Range: Summation, Lower Detection Limit: 0.5 μm, Flow Rate: 30 mL/min, No. Analysis pulls: 4, Time between pulls: 1 sec, Pull volume: 10 mL, Tare Volume: 1 mL, Prime volume: 1 mL, Include First Pull: Not Selected.
Vortexed for 5-10 minutes and sonicated in a water batch for 1 minute.
Filled a plastic bottle with filtered (0.22 μm) 0.1% w/w SDS solution and analyzed the Background.

[5] = Specific surface area (BET isotherm); type: physicochemical; details: lots used in the formulas
Description: (§1) As used herein, the “specific surface area (SSA)” is the total surface area of the taxane nanoparticle per unit of taxane mass as measured by the Brunauer-Emmett-Teller (“BET”) isotherm by the following method: a known mass between 200 and 300 mg of the analyte is added to a 30 mL sample tube. […] The automated test is then carried out using the BETWIN® software package and the surface area of each sample is subsequently calculated. The bulk density measurement can be conducted by pouring the taxane nanoparticles into a graduated cylinder without tapping at room temperature, measuring the mass and volume, and calculating the bulk density.

[6] = Bulk density (not tapped); type: physicochemical; details: lots used in the formulas
Description: as §1

[7] = in Aluminum sulfate 0.1-0.2% in water, 7 days, RT
[8] = in Ammonium lauryl sulfate 2% in water, 3 days, RT
[9] = in Benzalkonium chloride (50%) 2% in water, 7 days & 21 days, RT
[10] = in CARBOPOL ULTREZ 10 (with Ammonium hydroxide as neutralizer) 0.5% in water, 8 days & 21 days, RT
[11] = in Castor Oil 100%, 24 hrs & 9 days, RT
[12] = in Dimethicone, 1000 cSt 100%, 24 hrs & 6 days, RT
[13] = in FOMBLIN HC04 100%, 4, 7 & 13 days, RT
[14] = in Hydroxyethyl cellulose 1% in water, 7 days, RT
[15] = in Hydroxypropyl methylcellulose 1% in water, 3 days, RT
[16] = in Lecithin 1% in water, 24 hrs, RT
[17] = in Light Mineral Oil NF 100%, 3 days, RT & 40 C.
[18] = in Magnesium nitrate 5% in water, 3 days, RT
[19] = in Mannitol 5% in water, 7 days, RT
[20] = in Mineral Oil USP (heavy) 100%, 3 days, RT & 40 C
[21] = in PEG 400 10% in water, 22 days, RT & 60 C.
[22] = in Poloxamer 188 2% in water, 7 days, RT
[23] = in Poloxamer 407 2% in water, 5 & 7 days, RT
[24] = in Polyoxyl 40 Hydrogenated Castor Oil (KOLLIPHOR RH40) 1% in water, 6 days, RT
[25] = in Polysorbate 80 0.5% in Saline, 7 days, RT & 60 C.
[26] = in Polysorbate 80 0.5% in water, 22 days, RT & 60 C.
[27] = in Povidone 1% in water, 7 days & 21 days, RT
[28] = in Proline 3% in water, 7 days, RT
[29] = in Purified Water 100%, 5 days, RT & 60 C.
[30] = in ST-Cyclomethicone 5 NF 100%, 24 hrs & 13 days, RT
[31] = in Saline 0.9% NaCl in water, 7 days, RT & 60 C.
[32] = in Sodium lauryl sulfate 2% in water, 7 days, RT
[33] = in Sodium phosphate monobasic 0.75% in water, 7 days, RT
[34] = in Sorbitol 5% in water, 7 days, RT
[35] = in Vitamin E TPGS 0.5% in water, 6 days, RT
[36] = in Zinc acetate […] in water, 7 days, RT

CC(=O)O[C@H]1C(=O)[C@@]2(C)[C@H]([C@H](OC(=O)c3ccccc3)[C@]3(O)C[C@H](OC(=O)[C@H](O)[C@@H](NC(=O)c4ccccc4)c4ccccc4)C(C)=C1C3(C)C)[C@]1(OC(C)=O)CO[C@@H]1C[C@@H]2O [Paclitaxel, paclitaxel]
Paclitaxel Solubility at RT ([1]; in Benzyl Alcohol, NF): 17.02% w/w | Paclitaxel Solubility at RT ([1]; in Diethylene Glycol Monoethyl Ether, NF (TRANSCUTOL P)): 33.10% w/w | Paclitaxel Solubility at RT ([1]; in Diisopropyl Adipate (CERAPHYL 230)): 3.51% w/w | Paclitaxel Solubility at RT ([1]; in Dimethyl Isosorbide): 38.22% w/w | Paclitaxel Solubility at RT ([1]; in Hexylene Glycol): 4.07% w/w | Paclitaxel Solubility at RT ([1]; in Isopropyl Myristate, NF): 0.048% w/w | Paclitaxel Solubility at RT ([1]; in Medium Chain Triglycerides, NF): 0.32% w/w | Paclitaxel Solubility at RT ([1]; in Mineral Oil, USP (heavy)): 0.3 ppm | Paclitaxel Solubility at RT ([1]; in Polyethylene Glycol 400, NF): 22.30% w/w | Paclitaxel Solubility at RT ([1]; in Propylene Carbonate): 4.74% w/w | Paclitaxel Solubility at RT ([1]; in Propylene Glycol, USP): 0.88% w/w | Paclitaxel Solubility at RT ([1]; in Purified Water, USP): <0.05 ppm | Paclitaxel Solubility at RT ([1]; in Purified Water, USP, listed as paclitaxel): less than 0.05 ppm | Paclitaxel Solubility at RT ([1]; in Super Refined Oleic Acid, NF): 0.041% w/w | Paclitaxel Solubility at RT ([1]; in Super Refined Oleyl Alcohol, NF): 0.38% w/w | Effect in skin inflammation models (skin inflammation models): reduced inflammation, swelling, and erythema

CC(=O)O[C@@]12CO[C@@H]1C[C@H](O)[C@@]1(C)C(=O)[C@H](O)C3=C(C)[C@@H](OC(=O)[C@H](O)[C@@H](NC(=O)OC(C)(C)C)c4ccccc4)C[C@@](O)([C@@H](OC(=O)c4ccccc4)[C@H]21)C3(C)C [docetaxel nanoparticles produced by milling] [reference compound]
Dissolution rate, % dissolved in 30 minutes ([2]; listed as docetaxel nanoparticles made by milling): 9%

CC(=O)O[C@H]1C(=O)[C@@]2(C)[C@H]([C@H](OC(=O)c3ccccc3)[C@]3(O)C[C@H](OC(=O)[C@H](O)[C@@H](NC(=O)c4ccccc4)c4ccccc4)C(C)=C1C3(C)C)[C@]1(OC(C)=O)CO[C@@H]1C[C@@H]2O [Paclitaxel nanoparticles, paclitaxel]
Crystal size (light microscopy) [3, 7]: > 5 μm | Needle shaped crystals observed? (visual observation by light microscopy) [3, 7]: Yes | Crystal size (light microscopy) [3, 8]: > 5 μm | Needle shaped crystals observed? (visual observation by light microscopy) [3, 8]: Yes | Crystal size (light microscopy) [3, 9]: < 5 μm | Needle shaped crystals observed? (visual observation by light microscopy) [3, 9]: No | Crystal size (light microscopy) [3, 10]: < 5 μm | Needle shaped crystals observed? (visual observation by light microscopy) [3, 10]: No | Crystal size (light microscopy) [3, 11]: < 5 μm | Needle shaped crystals observed? (visual observation by light microscopy) [3, 11]: No | Crystal size (light microscopy) [3, 12]: < 5 μm | Needle shaped crystals observed? (visual observation by light microscopy) [3, 12]: No | Crystal size (light microscopy) [3, 13]: < 5 μm | Needle shaped crystals observed? (visual observation by light microscopy) [3, 13]: No | Crystal size (light microscopy) [3, 14]: > 5 μm | Needle shaped crystals observed? (visual observation by light microscopy) [3, 14]: Yes | Crystal size (light microscopy) [3, 15]: > 5 μm | Needle shaped crystals observed? (visual observation by light microscopy) [3, 15]: Yes | Crystal size (light microscopy) [3, 16]: > 10 μm | Needle shaped crystals observed? (visual observation by light microscopy) [3, 16]: Yes | Crystal size (light microscopy) [3, 17]: < 5 μm | Needle shaped crystals observed? (visual observation by light microscopy) [3, 17]: No | Crystal size (light microscopy) [3, 18]: > 5 μm | Needle shaped crystals observed? (visual observation by light microscopy) [3, 18]: Yes | Crystal size (light microscopy) [3, 19]: > 5 μm | Needle shaped crystals observed? (visual observation by light microscopy) [3, 19]: Yes | Crystal size (light microscopy) [3, 20]: < 5 μm | Needle shaped crystals observed? (visual observation by light microscopy) [3, 20]: No | Crystal size (light microscopy) [3, 21]: > 5 μm | Needle shaped crystals observed? (visual observation by light microscopy) [3, 21]: Yes | Crystal size (light microscopy) [3, 22]: > 5 μm | Needle shaped crystals observed? (visual observation by light microscopy) [3, 22]: Yes | Crystal size (light microscopy) [3, 23]: < 5 μm | Needle shaped crystals observed? (visual observation by light microscopy) [3, 23]: No | Crystal size (light microscopy) [3, 24]: < 5 μm | Needle shaped crystals observed? (visual observation by light microscopy) [3, 24]: Yes | Crystal size (light microscopy) [3, 25]: > 5 μm | Needle shaped crystals observed? (visual observation by light microscopy) [3, 25]: Yes | Crystal size (light microscopy) [3, 26]: < 5 μm | Needle shaped crystals observed? (visual observation by light microscopy) [3, 26]: Yes | Crystal size (light microscopy) [3, 27]: < 5 μm | Needle shaped crystals observed? (visual observation by light microscopy) [3, 27]: Yes | Crystal size (light microscopy) [3, 28]: > 5 μm | Needle shaped crystals observed? (visual observation by light microscopy) [3, 28]: Yes | Crystal size (light microscopy) [3, 29]: > 5 μm | Needle shaped crystals observed? (visual observation by light microscopy) [3, 29]: Yes | Crystal size (light microscopy) [3, 30]: < 5 μm | Needle shaped crystals observed? (visual observation by light microscopy) [3, 30]: No | Crystal size (light microscopy) [3, 31]: > 10 μm | Needle shaped crystals observed? (visual observation by light microscopy) [3, 31]: Yes | Crystal size (light microscopy) [3, 32]: > 5 μm | Needle shaped crystals observed? (visual observation by light microscopy) [3, 32]: Yes | Crystal size (light microscopy) [3, 33]: > 5 μm | Needle shaped crystals observed? (visual observation by light microscopy) [3, 33]: Yes | Crystal size (light microscopy) [3, 34]: > 5 μm | Needle shaped crystals observed? (visual observation by light microscopy) [3, 34]: Yes | Crystal size (light microscopy) [3, 35]: < 5 μm | Needle shaped crystals observed? (visual observation by light microscopy) [3, 35]: Yes | Crystal size (light microscopy) [3, 36]: > 5 μm | Needle shaped crystals observed? (visual observation by light microscopy) [3, 36]: Yes | Crystal growth ([3]; in any of the hydrophobic carriers): did not grow | Crystal growth ([3]; in aqueous solutions of benzalkonium chloride, CARBOPOL ULTREZ 10, or poloxamer 407): did not grow

CC(=O)O[C@@]12CO[C@@H]1C[C@H](O)[C@@]1(C)C(=O)[C@H](O)C3=C(C)[C@@H](OC(=O)[C@H](O)[C@@H](NC(=O)OC(C)(C)C)c4ccccc4)C[C@@](O)([C@@H](OC(=O)c4ccccc4)[C@H]21)C3(C)C [docetaxel nanoparticles, docetaxel]
Dissolution rate, % dissolved in 30 minutes [2]: 27%

CC(=O)O[C@H]1C(=O)[C@@]2(C)[C@H]([C@H](OC(=O)c3ccccc3)[C@]3(O)C[C@H](OC(=O)[C@H](O)[C@@H](NC(=O)c4ccccc4)c4ccccc4)C(C)=C1C3(C)C)[C@]1(OC(C)=O)CO[C@@H]1C[C@@H]2O [Paclitaxel nanoparticles lot used in formulas listed in Tabl] [listing 1 of 2 here]
Particle size, Mean [4]: 0.83 μm | Specific surface area (SSA) [5]: 26.72 m^2/g | Bulk density (not-tapped) [6]: 0.09 g/mL

CC(=O)O[C@H]1C(=O)[C@@]2(C)[C@H]([C@H](OC(=O)c3ccccc3)[C@]3(O)C[C@H](OC(=O)[C@H](O)[C@@H](NC(=O)c4ccccc4)c4ccccc4)C(C)=C1C3(C)C)[C@]1(OC(C)=O)CO[C@@H]1C[C@@H]2O [Paclitaxel nanoparticles lot used in formulas listed in Tabl] [listing 2 of 2 here]
Particle size, Mean [4]: 0.861 μm | Particle size, Median [4]: 0.710 μm | Particle size, Mode [4]: 0.572 μm | Specific surface area (SSA) [5]: 41.24 m^2/g | Bulk density (not-tapped) [6]: 0.05 g/mL
